Paper PMC3748103, “Characterization of FKGK18 as Inhibitor of Group VIA Ca^2+-Independent Phospholipase A2 (iPLA2β): Candidate Drug for Preventing Beta-Cell Apoptosis and Diabetes” (PLoS ONE, 2013)
pIC50: −log10 of the molar value.

Target: T1, iPLA2β (Group VIA Ca^2+-independent phospholipase A2) (Rattus norvegicus, UniProt P97570)
T1 construct: gene Pla2g6; iPLA2β overexpressed in INS-1 insulinoma cells (OE), cytosol
T1 sequence (P97570 1-807): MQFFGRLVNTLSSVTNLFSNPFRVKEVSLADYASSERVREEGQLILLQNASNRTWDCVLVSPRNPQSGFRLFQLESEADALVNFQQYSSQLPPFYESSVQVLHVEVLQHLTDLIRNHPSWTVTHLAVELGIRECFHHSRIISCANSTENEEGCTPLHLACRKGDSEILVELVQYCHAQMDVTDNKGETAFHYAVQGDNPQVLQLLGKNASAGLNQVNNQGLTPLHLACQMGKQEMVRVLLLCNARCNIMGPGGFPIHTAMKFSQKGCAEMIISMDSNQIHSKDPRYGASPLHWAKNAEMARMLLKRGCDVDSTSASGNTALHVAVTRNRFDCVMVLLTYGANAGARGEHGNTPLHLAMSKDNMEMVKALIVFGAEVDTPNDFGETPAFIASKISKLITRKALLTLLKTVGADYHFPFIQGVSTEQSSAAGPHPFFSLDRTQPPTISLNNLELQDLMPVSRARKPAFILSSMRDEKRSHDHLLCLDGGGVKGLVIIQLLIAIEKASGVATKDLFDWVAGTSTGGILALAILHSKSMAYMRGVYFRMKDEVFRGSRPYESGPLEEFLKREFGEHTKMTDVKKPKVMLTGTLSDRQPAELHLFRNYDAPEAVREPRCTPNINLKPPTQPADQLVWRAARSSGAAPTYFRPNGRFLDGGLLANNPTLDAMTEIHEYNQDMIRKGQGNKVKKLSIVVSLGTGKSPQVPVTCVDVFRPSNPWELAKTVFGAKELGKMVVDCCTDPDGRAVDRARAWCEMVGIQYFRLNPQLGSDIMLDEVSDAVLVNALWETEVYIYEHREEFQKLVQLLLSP
Test: radioactive PLA2 activity assay ([…]-PAPC) in cytosol of iPLA2β-overexpressing INS-1 cells
Format: biochemical

| pIC50 | SMILES |
| --- | --- |
| ~7.30 | O=C(CCCCc1ccc2ccccc2c1)C(F)(F)F [FKGK18, 1,1,1-trifluoro-6-(naphthalen-2-yl)hexan-2-one] |
| ~5.52 | O=C1O/C(=C/Br)CC[C@@H]1c1cccc2ccccc12 [R-BEL, (E)-6-(bromo-methylene) tetrahydro-3-(1-naphthalenyl)-2H-pyran-2-one] |
